Experimental data as given in patent publication US5977169A, “Substituted tetronic acids useful for treating HIV and other retroviruses” (priority 1997, dated 1999).
Counter-ions that a name gives are not always drawn.

Target: T1, HIV-1 protease (Human immunodeficiency virus type 1 group M subtype B, UniProt P04585)
T1 construct: The protease (or proteinase) enzyme, consisting of only 99 amino acids
Assay: In vitro HIV protease inhibitory assay (fluorescently labeled substrate, avidin-polystyrene particles)
Type: biochemical
Conditions: for inhibition at 3.3 µM: HIV-1 dose 3.3 μM; for inhibition at 10 µM: HIV-1 dose 10.0 μM; for inhibition at 30 µM: HIV-1 dose 30.0 μM
Protocol: The HIV protease screening assay is based on a fluorescently labeled substrate which can be resolved from nonlabeled cleavage product using avidin-polystyrene particles, 0.7-0.9 μm. The substrate is biotinylated at the amino terminal arginine and fluorescently labeled with fluorescein isothiocynate (FITC) at the carboxyl terminal lysine. This assay has been employed to detect novel, nonpeptidic inhibitors of HIV-1 protease. Substrate (20 μl of 0.2 μM), sample (10 μl of desired concentraion), and enzyme (10 μl of 0.1 μM) are added to a 96 well pandex plate. The assay is run in 0.1 M sodium acetate buffer at pH 5.5 in the presence of 1.0 M sodium chloride and 0.05% NP-40 and incubated in the dark for one hour at room temperature. Avidin coated polystyrene beads (40 μl of 0.1% (w/v)) are added and the incubation is continued in the dark for an additional half hour. The labeled cleavage product is separated from the unreacted substrate via filtration and is read on the IDEXX Screen Machine. (IDEXX Corporation--Portland, Me.) The data are analyzed by appropriate computer algorithms to ascertain percent inhibition values.
The Activity Table showing the results of the HIV Protease Inhibitory Assay appears below in TABLE 1. The table has three columns, the left column provides the code number of the compound for easy cross reference to structure tables and detailed procedures, the middle column provides the concentration of test compound and the column on the right provides the percent inhibition.

[1] = test compound concentration 3.3 μM
[2] = test compound concentration 10.0 μM
[3] = test compound concentration 30.0 μM

O=C1OC2(CCCCC2)C(O)=C1C(c1ccccc1)C1CC1 (stereo not drawn) [IX-3, 1-Oxaspiro[4.5]dec-3-en-2-one, 3-(cyclopropyl-phenylmethyl)-4-hydroxy-]
inhibition at 3.3 µM: 102%
inhibition at 10 µM: 114%
inhibition at 30 µM: 103%

O=C1OC2(CCCCC2CCc2ccccc2)C(O)=C1C(c1ccccc1)C1CC1 (stereo not drawn) [IX-4, 1 -Oxaspiro[4.5]dec-3-en-2-one, 3-(cyclo-propylphenylmethyl)-5-hydroxy--6-(2-phenylethyl)-]
inhibition at 10 µM: 78.1%
inhibition at 30 µM: 86%
HIV-1 Protease % Inhibition [1]: 56.89%

O=C1OC2(CCCCC2CCc2ccccc2)C(O)=C1C(c1ccccc1)C1CC1 (stereo not drawn) [IX-5, 1-Oxaspiro[4.5]dec-3-en-2-one, 3-(cyclo-propylphenylmethyl)-4-hydroxy--6-(2-phenylethyl)-]
HIV-1 Protease % Inhibition [1]: 91.93%
HIV-1 Protease % Inhibition [2]: 95.68%
HIV-1 Protease % Inhibition [3]: 92.9%

O=C1OC2(CCCCC2Cc2ccccc2)C(O)=C1C(c1ccccc1)C1CC1 (stereo not drawn) [IX-6, 1-Oxaspiro[4.5]dec-3-en-2-one, 3-(cyclo-propylphenylmethyl)-4-hydroxy--6-(2-phenylmethyl)-]
inhibition at 3.3 µM: 101%
inhibition at 10 µM: 104%
inhibition at 30 µM: 105%

O=C1OC2(CCCCC2Cc2ccccc2)C(O)=C1C(c1ccccc1)C1CC1 (stereo not drawn) [IX-7, 1-Oxaspiro[4.5]dec-3-en-2-one, 3-(cyclo-propylphenylmethyl)4-hydroxy-6--(2-phenylmethyl)-]
HIV-1 Protease % Inhibition [1]: 102.85%
HIV-1 Protease % Inhibition [2]: 99.7%
HIV-1 Protease % Inhibition [3]: 95.76%

O=C1OC2(CCCCCC2)C(O)=C1C(c1ccccc1)C1CC1 (stereo not drawn) [IX-8, 1-Oxaspiro[4.6]undec-3-en-2-one, 3-(cyclo-propylphenylmethyl)-4-hydroxy-]
inhibition at 3.3 µM: 104%
inhibition at 10 µM: 108%
inhibition at 30 µM: 104%

CCC1(Cc2ccccc2)OC(=O)C(C(c2ccccc2)C(C)C)=C1O (stereo not drawn) [IX-9, 2(5H)-Furanone, 5-ethyl-4-hydroxy-3-(2-methy1-1-phenylpropyl)-5-(phenyl-methyl)-]
inhibition at 3.3 µM: 103%
inhibition at 10 µM: 109%
inhibition at 30 µM: 108%

CCC(C1=C(O)C(CC)(Cc2ccccc2)OC1=O)c1ccccc1 (stereo not drawn) [IX-10, 2(5H)-Furanone, 5-ethyl-4-hydroxy-5-(phenyl-methyl)-3-(1-phenylpropyl)-]
inhibition at 3.3 µM: 97.3%
inhibition at 10 µM: 105%
inhibition at 30 µM: 101%

CCCC1(CCC)OC(=O)C(C(c2cccc(N)c2)C2CC2)=C1O (stereo not drawn) [IX-11, 2(5H)-Furanone, 3-((3-aminophenyl)cyclopropylmethyl)-4-hydroxy-5,5-dipropyl-]
inhibition at 3.3 µM: 108%
inhibition at 10 µM: 108%
inhibition at 30 µM: 114%

CCCC1(CCC)OC(=O)C(C(c2cccc(N)c2)C2CC2)=C1O (stereo not drawn) [IX-12, 2(5H)-Furanone, 3-((3-aminophenyl)cyclopropylmethyl)-4-hydroxy-5,5-dipropyl-hydrochloride]
HIV-1 Protease % Inhibition [1]: 117.79%
HIV-1 Protease % Inhibition [2]: 119.69%
HIV-1 Protease % Inhibition [3]: 120.48%

CCCC1(CCC)OC(=O)C(C(CC)c2cccc(N)c2)=C1O (stereo not drawn) [IX-13, 2(5H)-Furanone, 3-(1-(3-aminophenyl)propyl)-4-hydroxy-4-hydroxy-5,5-dipropyl-]
inhibition at 3.3 µM: 59.9%
inhibition at 10 µM: 86.5%
inhibition at 30 µM: 89.4%

CCCC1(CCC)OC(=O)C(C(c2cccc(NS(=O)(=O)c3ccccc3)c2)C2CC2)=C1O (stereo not drawn) [IX-15, Benzenesulfonamide, N-(3-(cyclopropyl(1,5-dihydro-4-hydroxy-2-oxo-5,5-dipropyl-3-furanyl)methyl)phenyl)-]
inhibition at 0.12 µM (HIV-1 dose 0.12 μM): 94%
inhibition at 0.37 µM (HIV-1 dose 0.37 μM): 102%
inhibition at 1.1 µM (HIV-1 dose 1.1 μM): 104%

CCCC1(CCC)OC(=O)C(C(c2cccc(NS(=O)(=O)c3ccc(F)cc3)c2)C2CC2)=C1O (stereo not drawn) [IX-16]
inhibition at 3.3 µM: 108%
inhibition at 10 µM: 109%
inhibition at 30 µM: 106%

CCCC1(CCC)OC(=O)C(C(c2cccc(NS(=O)(=O)c3cccc4cccnc34)c2)C2CC2)=C1O (stereo not drawn) [IX-18]
inhibition at 3.3 µM: 102%
inhibition at 10 µM: 125%
inhibition at 30 µM: 106%

CCCC1(CCC)OC(=O)C(C(c2cccc(NS(=O)(=O)c3cccc4ccccc34)c2)C2CC2)=C1O (stereo not drawn) [IX-19]
inhibition at 3.3 µM: 103%
inhibition at 10 µM: 126%
inhibition at 30 µM: 105%

CCCC1(CCC)OC(=O)C(C(CC)c2cccc(NS(=O)(=O)c3ccccc3)c2)=C1O (stereo not drawn) [IX-20, Benzenesulfonamide, N-(3-(1-(2,5-dihydro-4-hydroxy-2-oxo--5,5-dipropyl-3-furanyl)propyl)phenyl)-]
inhibition at 3.3 µM: 104%
inhibition at 10 µM: 101%
inhibition at 30 µM: 91.8%

CCCC1(CCC)OC(=O)C(C(CC(C)C)c2cccc(NS(=O)(=O)c3ccc(C#N)cc3)c2)=C1O (stereo not drawn) [IX-21, Benzenesulfonamide, 4-Cyano-N-(3-(1-(4-hydroxy-2-oxo-5,5-dipropyl-2,5-dihydro-furan-3-yl)-3-methyl-butyl)-phenyl)-]
inhibition at 3.3 µM: 95.7%
inhibition at 10 µM: 101%
inhibition at 30 µM: 96.1%

CCCC1(CCC)OC(=O)C(C(CC(C)C)c2cccc(NS(=O)(=O)c3cn(C)cn3)c2)=C1O (stereo not drawn) [IX-22]
inhibition at 3.3 µM: 94.3%
inhibition at 10 µM: 96.3%
inhibition at 30 µM: 94.5%

CCCC1(CCC)OC(=O)C(C(c2cccc(NS(=O)(=O)c3ccc(C#N)cc3)c2)C(C)C)=C1O (stereo not drawn) [IX-23, Benzenesulfonamide, 4-Cyano-N-(3-(1-(4-hydroxy-2-oxo-5,5-dipropyl-2,5-dihydro-furan-3-yl)-2-methyl-propyl)-phenyl)-]
inhibition at 3.3 µM: 109%
inhibition at 10 µM: 101%
inhibition at 30 µM: 112%

CCCC1(CCC)OC(=O)C(C(c2cccc(NS(=O)(=O)c3ccc(C#N)cc3)c2)C(C)(C)C)=C1O (stereo not drawn) [IX-25, Benzenesulfonamide, 4-Cyano-N-(3-(1-(4-hydroxy-2-oxo-5,5-dipropyl-2,5-dihydro-furan-3-yl)-2,2-dimethyl-propyl)-phenyl)-]
inhibition at 3.3 µM: 120%
inhibition at 10 µM: 120%
inhibition at 30 µM: 117%

CCCC1(CCC)OC(=O)C(C(c2cccc(NS(=O)(=O)c3cn(C)cn3)c2)C(C)(C)C)=C1O (stereo not drawn) [IX-26, 1H-Imidazole-4-sulfonamide, N-(3-(1-(4-hydroxy-2-oxo-5,5-dipropyl-2,5-dihydro-furan-3-yl)-2,2-dimethyl-propyl)-phenyl)-1-methyl-]
inhibition at 3.3 µM: 110%
inhibition at 10 µM: 116%
inhibition at 30 µM: 105%

CCCC1(Cc2ccccc2)OC(=O)C(C(c2cccc(NS(=O)(=O)c3ccccc3)c2)C(C)C)=C1O (stereo not drawn) [IX-27, Benzenesulfonamide, N-(3-(1-(2,5-dihydro-4-hydroxy-2-oxo-5--(phenylmethyl)-5-propyl-3-furanyl)-2-methylpropyl)phenyl)-]
inhibition at 3.3 µM: 105%
inhibition at 10 µM: 117%
inhibition at 30 µM: 106%

CCCC1(Cc2ccccc2)OC(=O)C(C(c2cccc(NS(=O)(=O)c3ccc(C#N)cc3)c2)C(C)C)=C1O (stereo not drawn) [IX-28]
inhibition at 3.3 µM: 123%
inhibition at 10 µM: 118%
inhibition at 30 µM: 125%

CCCC1(Cc2ccccc2)OC(=O)C(C(c2cccc(NS(=O)(=O)c3ccc(F)cc3)c2)C(C)C)=C1O (stereo not drawn) [IX-29, Benzenesulfonamide, N-(3-(1-(2,5-dihydro-4-hydroxy-2-oxo-5-(phenylmethyl)-5-propyl-3-furanyl)-2-methylpropyl)phenyl)-4-fluoro-]
inhibition at 3.3 µM: 94.9%
inhibition at 10 µM: 102%
inhibition at 30 µM: 93.3%

CCCC1(Cc2ccccc2)OC(=O)C(C(c2cccc(NS(=O)(=O)c3cn(C)cn3)c2)C(C)C)=C1O (stereo not drawn) [IX-30]
inhibition at 3.3 µM: 97.1%
inhibition at 10 µM: 96.6%
inhibition at 30 µM: 94.3%

CCCC1(Cc2ccccc2)OC(=O)C(C(c2cccc(NS(=O)(=O)c3cccc4cccnc34)c2)C(C)C)=C1O (stereo not drawn) [IX-31]
inhibition at 3.3 µM: 107%
inhibition at 10 µM: 114%
inhibition at 30 µM: 109%

CCCC1(CCC)OC(=O)C(C(c2cccc(NC(=O)OCc3ccccc3)c2)C2CC2)=C1O (stereo not drawn) [IX-32, Carbamic acid, (3-(cyclopropyl(2,5-dihydro-4-hydroxy-2-oxo-5,5-dipropyl-3-furanyl)methyl)phenyl)-, phenylmethyl ester]
inhibition at 3.3 µM: 100%
inhibition at 10 µM: 106%
inhibition at 30 µM: 111%

CCC1CCCCC12OC(=O)C(C(c1ccccc1)C1CC1)=C2O (stereo not drawn) [IX-34, 1-Oxaspiro[4.5]dec-3-en-2-one, 3-(cyclopropylphenylmethyl)-4-hydroxy-6-ethyl-]
inhibition at 3.3 µM: 97%
inhibition at 10 µM: 98.1%
inhibition at 30 µM: 93.3%

CCCC1(CCC)OC(=O)C(C(c2cccc(NS(=O)(=O)c3ccc(C#N)cn3)c2)C2CC2)=C1O (stereo not drawn) [IX-35, 5-cyano-2-pyridinesulfonamide, N-(3-(cyclopropyl(2,5-dihydro-4-hydroxy-2-oxo-5,5-dipropyl-3-furanyl)methyl)phenyl)-]
inhibition at 3.3 µM: 82.2%
inhibition at 10 µM: 98.8%
inhibition at 30 µM: 91.9%

CCCC1(CCC)OC(=O)C(C(c2cccc(NS(=O)(=O)c3ncc[nH]3)c2)C2CC2)=C1O (stereo not drawn) [IX-36]
inhibition at 3.3 µM: 37%
inhibition at 10 µM: 79.6%
inhibition at 30 µM: 83%
